Results as given in US9353091B2 (priority 2009, dated 2016).

How the values were obtained:
[1] = target: T1, HCV polymerase 1A (Δ21 NS5B) (Hepatitis C virus genotype 1a, UniProt P27958); assay: HCV Polymerase Inhibition Assay (1a); type: biochemical
T1 construct: 20 to 50 nM Δ21 NS5B
Description: (§1) Reaction volume was 50 μL. The reaction was terminated by the addition of 1 volume of 4 mM spermine in 10 mM Tris-Cl pH 8.0, 1 mM EDTA. After incubation for at least 15 minutes at room temperature, the precipitated RNA was captured by filtering through a GF/B filter (Millipore) in a 96 well format. The filter plate was washed three times with 200 μL, each of 2 mM spermine, 10 mM Tris-Cl pH 8.0, 1 mM EDTA, and 2 times with ethanol. After air-drying, 30 μL, of Microscint 20 scintillation cocktail (Packard) was added to each well, and the retained cpm were determined by scintillation counting. […] Retained cpm were plotted vs. inhibitor concentration and fit to equation 1 using non-linear regression (ref. 1) to obtain the IC50 values: Retained cpm=A[sqrt{(IC50+It−Et)^2+4*IC50*Et}−(IC50+It−Et)]
(§2) Ref. Morrison, J. F. and S. R. Stone. 1985. Approaches to the study and analysis of the inhibition of enzymes by slow- and tight-binding inhibitors. Comments Mol. Cell. Biophys. 2: 347-368.
(§3) The sequence of the template RNA used was: 5′-[…] […] […] […] […] […] […] […] […] […] […] […] […] […] […] […] […]-3′ (SEQ ID NO: 1)

[2] = target: T2, HCV polymerase 1B (Δ21 NS5B) (Hepatitis C virus genotype 1b, UniProt P26663); assay: HCV Polymerase Inhibition Assay (1b); type: biochemical
T2 construct: 20 to 50 nM Δ21 NS5B
T2 sequence (P26663 2420-2989, stated change not applied): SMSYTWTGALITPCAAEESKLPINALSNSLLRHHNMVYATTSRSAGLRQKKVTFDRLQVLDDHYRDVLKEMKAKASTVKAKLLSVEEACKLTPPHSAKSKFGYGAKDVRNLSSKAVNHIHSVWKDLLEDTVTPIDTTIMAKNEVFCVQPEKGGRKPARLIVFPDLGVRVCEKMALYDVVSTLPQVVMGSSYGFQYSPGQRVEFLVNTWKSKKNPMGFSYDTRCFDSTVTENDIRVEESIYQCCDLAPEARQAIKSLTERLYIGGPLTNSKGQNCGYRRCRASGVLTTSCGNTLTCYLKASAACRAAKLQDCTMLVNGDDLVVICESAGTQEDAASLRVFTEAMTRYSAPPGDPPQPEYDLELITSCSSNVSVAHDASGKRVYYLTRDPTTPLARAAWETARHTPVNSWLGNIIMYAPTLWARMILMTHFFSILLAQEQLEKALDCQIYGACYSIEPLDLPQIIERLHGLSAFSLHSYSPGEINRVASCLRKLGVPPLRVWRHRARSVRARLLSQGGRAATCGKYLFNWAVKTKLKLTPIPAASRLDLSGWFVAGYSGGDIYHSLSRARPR
Description: as §1, §2, §3

[3] = system: genotype 1b-Con1 subgenomic replicon cell line; assay: HCV Polymerase Replicon Assay (genotype 1b-Con1, luciferase reporter); type: cell-based; settings: Hepatitis C virus, 72 h, 1b-Con1 replicon, three days
[4] = system: genotype 1a-H77 subgenomic replicon cell line; assay: HCV Polymerase Replicon Assay (genotype 1a-H77, luciferase reporter); type: cell-based; settings: Hepatitis C virus, 72 h, 1a-H77 replicon, three days

T1 sequence (P27958 2421-2990, stated change not applied): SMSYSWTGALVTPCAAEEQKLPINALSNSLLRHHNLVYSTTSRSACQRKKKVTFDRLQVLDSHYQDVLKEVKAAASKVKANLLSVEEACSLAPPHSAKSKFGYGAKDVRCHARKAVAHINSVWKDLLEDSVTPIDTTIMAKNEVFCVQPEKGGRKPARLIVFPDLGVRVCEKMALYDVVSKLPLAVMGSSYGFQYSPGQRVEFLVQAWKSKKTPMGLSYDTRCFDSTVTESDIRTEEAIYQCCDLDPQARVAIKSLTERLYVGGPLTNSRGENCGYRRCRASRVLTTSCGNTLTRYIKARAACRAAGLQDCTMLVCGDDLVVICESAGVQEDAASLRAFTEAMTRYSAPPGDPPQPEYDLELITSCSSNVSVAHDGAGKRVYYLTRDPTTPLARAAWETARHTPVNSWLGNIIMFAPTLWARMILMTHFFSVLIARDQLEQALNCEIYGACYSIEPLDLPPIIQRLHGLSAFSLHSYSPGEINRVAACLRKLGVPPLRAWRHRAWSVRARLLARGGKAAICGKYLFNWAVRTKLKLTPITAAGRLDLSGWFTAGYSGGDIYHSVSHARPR

| Structure (SMILES) | IC50 [1] [nM] | IC50 [2] [nM] | EC50 [3] [nM] | EC50 [4] [nM] |
| --- | --- | --- | --- | --- |
| COc1c(-c2c[nH]c(=O)[nH]c2=O)cc(-c2ccc3cc(NS(C)(=O)=O)ccc3c2)cc1C(C)(C)C [compound 1, N-(6-(3-tert-butyl-5-(2,4-dioxo-1,2,3,4-tetrahydropyrimidin-5-yl)-4-methoxyphenyl)naphthalen-2-yl)methanesulfonamide] | 100 to 1000 | 100 to 1000 |  |  |
| COc1c(-c2ccc3c(c2)CC=C3CNS(C)(=O)=O)cc(-c2c[nH]c(=O)[nH]c2=O)cc1C(C)(C)C [compound 3, N-((6-(3-tert-butyl-5-(2,4-dioxo-1,2,3,4-tetrahydropyrimidin-5-yl)-2-methoxyphenyl)-1H-inden-3-yl)methyl)methanesulfonamide] | < 10 | < 10 | ≤ 10 | ≤ 10 |
| COc1c(/C=C/c2ccc(NS(C)(=O)=O)cc2)cc(-c2c[nH]c(=O)[nH]c2=O)cc1C(C)(C)C [compound 4, (E)-N-(4-(3-tert-butyl-5-(2,4-dioxo-1,2,3,4-tetrahydropyrimidin-5-yl)-2-methoxystyryl)phenyl)methanesulfonamide] |  |  | ≤ 10 | ≤ 10 |
| COc1c(Br)cc(-c2c[nH]c(=O)[nH]c2=O)cc1C(C)(C)C [compound 5, 5-(3-bromo-5-tert-butyl-4-methoxyphenyl)pyrimidine-2,4(1H,3H)-dione] | > 1000 | > 1000 | > 1000 | > 1000 |
| COc1c(-c2ccc3cc(NS(C)(=O)=O)ccc3c2)cc(-c2ccc(F)cc2F)cc1C(C)(C)C [compound 11, N-(6-(5-tert-butyl-2′,4′-difluoro-4-methoxybiphenyl-3-yl)naphthalen-2-yl)methanesulfonamide] | > 1000 | > 1000 | > 1000 |  |
| COc1c(-c2ccc3cc(NS(C)(=O)=O)ccc3c2)cc(NC(=O)Nc2ccccc2)cc1C(C)(C)C [compound 17, N-(6-(3-tert-butyl-2-methoxy-5-(3-phenylureido)phenyl)naphthalen-2-yl)methanesulfonamide] | > 1000 | > 1000 |  |  |
| COc1c(-c2ccc3cc(NS(C)(=O)=O)ccc3c2)cc(NC(=O)NC(C)C)cc1C(C)(C)C [compound 18, N-(6-(3-tert-butyl-5-(3-isopropylureido)-2-methoxyphenyl)naphthalen-2-yl)methanesulfonamide] | > 1000 | > 1000 |  |  |
| COc1c(-c2ccc3cc(NS(C)(=O)=O)ccc3c2)cc(NC(=O)CNC(=O)OC(C)(C)C)cc1C(C)(C)C [compound 19, tert-butyl 2-(3-tert-butyl-4-methoxy-5-(6-(methylsulfonamido)naphthalen-2-yl)phenylamino)-2-oxoethylcarbamate] | > 1000 | > 1000 |  |  |
| COc1c(-c2ccc3cc(NS(C)(=O)=O)ccc3c2)cc(NC(=O)CN)cc1C(C)(C)C [compound 20, 2-amino-N-(3-tert-butyl-4-methoxy-5-(6-(methylsulfonamido)naphthalen-2-yl)phenyl)acetamide] | > 1000 | > 1000 |  |  |
| COc1c(-c2ccc3cc(NS(C)(=O)=O)ccc3c2)cc(NC(=O)CCN)cc1C(C)(C)C [compound 24, 3-amino-N-(3-tert-butyl-4-methoxy-5-(6-(methylsulfonamido)naphthalen-2-yl)phenyl)propanamide] | > 1000 | > 1000 |  |  |
| COc1c(-c2ccc3cc(NS(C)(=O)=O)ccc3c2)cc(C(=O)c2ccccc2)cc1C(C)(C)C [compound 31, N-(6-(5-benzoyl-3-tert-butyl-2-methoxyphenyl)naphthalen-2-yl)methanesulfonamide] | > 1000 | > 1000 |  |  |
| COc1c(/C=C/c2ccc(NS(C)(=O)=O)cc2)cc(C(=O)c2ccccc2)cc1C(C)(C)C [compound 32, (E)-N-(4-(5-benzoyl-3-tert-butyl-2-methoxystyryl)phenyl)methanesulfonamide] | > 1000 | > 1000 |  |  |
